IC50 data for ten compounds are collected here from patent US12209085B2, “RET inhibitors, pharmaceutical compositions and uses thereof” (SUNSHINE LAKE PHARMA CO., LTD., priority 2018, dated 2025).

Chain of Ret wt (P07949 29-1114): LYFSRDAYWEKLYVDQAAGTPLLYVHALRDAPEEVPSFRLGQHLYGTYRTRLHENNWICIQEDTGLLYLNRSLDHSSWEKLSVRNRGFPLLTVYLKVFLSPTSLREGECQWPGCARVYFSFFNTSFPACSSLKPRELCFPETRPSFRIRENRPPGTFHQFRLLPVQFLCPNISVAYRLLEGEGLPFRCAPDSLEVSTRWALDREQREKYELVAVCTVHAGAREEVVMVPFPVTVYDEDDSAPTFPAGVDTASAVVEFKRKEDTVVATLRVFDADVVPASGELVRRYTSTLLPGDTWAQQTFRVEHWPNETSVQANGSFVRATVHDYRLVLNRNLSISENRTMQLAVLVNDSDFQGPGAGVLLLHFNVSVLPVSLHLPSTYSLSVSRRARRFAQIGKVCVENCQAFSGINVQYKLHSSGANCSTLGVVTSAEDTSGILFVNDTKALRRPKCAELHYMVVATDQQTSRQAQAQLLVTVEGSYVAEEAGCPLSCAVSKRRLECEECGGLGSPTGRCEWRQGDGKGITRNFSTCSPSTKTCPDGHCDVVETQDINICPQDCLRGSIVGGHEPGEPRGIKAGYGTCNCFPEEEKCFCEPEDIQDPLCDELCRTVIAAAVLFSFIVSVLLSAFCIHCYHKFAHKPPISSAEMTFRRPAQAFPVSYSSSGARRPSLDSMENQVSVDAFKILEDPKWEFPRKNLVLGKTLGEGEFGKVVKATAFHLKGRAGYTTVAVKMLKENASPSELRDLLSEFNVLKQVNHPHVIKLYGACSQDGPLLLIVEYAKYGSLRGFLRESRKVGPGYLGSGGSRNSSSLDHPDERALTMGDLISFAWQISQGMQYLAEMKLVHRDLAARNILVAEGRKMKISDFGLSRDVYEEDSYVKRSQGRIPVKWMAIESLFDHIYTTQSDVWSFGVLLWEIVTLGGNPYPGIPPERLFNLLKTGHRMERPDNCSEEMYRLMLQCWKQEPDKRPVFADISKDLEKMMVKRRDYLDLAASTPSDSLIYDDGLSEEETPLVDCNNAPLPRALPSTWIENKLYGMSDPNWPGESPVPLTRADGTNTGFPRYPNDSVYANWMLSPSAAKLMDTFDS

The assay deals with Ret wt (Homo sapiens (Human), UniProt P07949). Put plainly: HTRF kinase inhibition assay, Ret wt. It counts as biochemical. As to conditions: HTRF method. The source says:
• 1. […] 1) • 18) Echo (Labcyte, 550) • 3.
[formula] • Ratiopositive control: average of CEP-32496 readings in all positive control wells • Rationegative control: average of DMSO readings in all negative control wells • Wherein, the chemical name of CEP-32496 is: N-[3-[(6,7-dimethoxy-4-quinazolinyl)oxy]phenyl]-N′-[5-(2,2,2-trifluoro-1,1-dimethylethyl)-3-isoxazolyl]urea. • 4.3 Calculation of the IC50 and Drawing of the inhibition curve of the compound: • The IC50 (half inhibitory concentration) of the compound was obtained using the following non-linear fitting formula: Data analysis was performed using Graphpad 6.0 software. Y=Bottom+(Top−Bottom)/(1+10^((Log IC50−X)*Hill Slope)) • X: compound concentration log value Y: inhibition, % • 5.
On the technique in general: TR-FRET usually uses a lanthanide donor and a delayed reading to cut background.
On to `C#Cc1ccc(C(=O)NC2(C)CCN(c3ccc(-c4cc(-c5cnn(C)c5)cn5ncc(C#N)c45)cn3)CC2)cc1` [Example 2, N-(1-(5-(3-cyano-6-(1-methyl-1H-pyrazol-4-yl)pyrazolo[1,5-a]pyridin-4-yl)pyridin-2-yl)-4-methyl-piperidin-4-yl)-4-ethynylbenzamide], for which the IC50 (usually the concentration at which inhibition is half-maximal) was 0.35 nM.

Take `C#Cc1cncc(CN2C3CC2CN(c2ccc(-c4cc(-c5cnn(C)c5)cn5ncc(C#N)c45)cn2)C3)c1` [Example 187, 4-(6-(6-((5-ethynylpyridin-3-yl)methyl)-3,6-diazabicyclo[3.1.1]heptan-3-yl)pyridin-3-yl)-6-(1-methyl-1H-pyrazol-4-yl)pyrazolo[1,5-a]pyridine-3-carbonitrile]: half-maximal inhibition (IC50) required 0.28 nM.

The compound `C#CCN1C2CC1CN(c1ccc(-c3cc(-c4cnn(C)c4)cn4ncc(C#N)c34)cn1)C2` [Example 195, 6-(1-methyl-1H-pyrazol-4-yl)-4-(6-(6-(prop-2-yn-1-yl)-3,6-diazabicyclo[3.1.1]heptan-3-yl)pyridin-3-yl)pyrazolo[1,5-a]pyridine-3-carbonitrile] showed an IC50 of 0.29 nM.

`C#Cc1cc(CN2C3CC2CN(c2ccc(-c4cc(-c5cnn(C)c5)cn5ncc(C#N)c45)cn2)C3)ccn1` [Example 217, 4-(6-(6-((2-ethynylpyridin-4-yl)methyl)-3,6-diazabicyclo[3.1.1]heptan-3-yl)pyridin-3-yl)-6-(1-methyl-1H-pyrazol-4-yl)pyrazolo[1,5-a]pyridine-3-carbonitrile] came in with an IC50 of 0.35 nM.

As for `C#Cc1cccc(CN2C3CC2CN(c2ccc(-c4cc(-c5cnn(C)c5)cn5ncc(C#N)c45)cn2)C3)c1F` [Example 218, 4-(6-(6-(3-ethynyl-2-fluorobenzyl)-3,6-diazabicyclo[3.1.1]heptan-3-yl)pyridin-3-yl)-6-(1-methyl-1H-pyrazol-4-yl)pyrazolo[1,5-a]pyridine-3-carbonitrile], the 50% inhibitory concentration (IC50) is 0.52 nM.

In turn, `C#Cc1cccc(C(C)N2C3CC2CN(c2ccc(-c4cc(-c5cnn(C)c5)cn5ncc(C#N)c45)cn2)C3)n1` (stereo not shown) [Example 219, 4-(6-(6-(1-(6-ethynylpyridin-2-yl)ethyl)-3,6-diazabicyclo[3.1.1]heptan-3-yl)pyridin-3-yl)-6-(1-methyl-1H-pyrazol-4-yl)pyrazolo[1,5-a]pyridine-3-carbonitrile] displayed a concentration for half-maximal inhibition (IC50) of 2.9 nM.

`C#Cc1cc(CN2C3CC2CN(c2ccc(-c4cc(-c5cnn(C)c5)cn5ncc(C#N)c45)cn2)C3)ccc1F` [Example 220, 4-(6-(3-(3-ethynyl-4-fluorobenzyl)-3,6-diazabicyclo[3.1.1]hept-3-yl)pyridin-3-yl)-6-(1-methyl-1H-pyrazol-4-yl)pyrazolo[1,5-a]pyridine-3-carbonitrile]: the IC50 stood at 0.22 nM. Against the preceding compound, the IC50 is about 13-fold lower.

`C#Cc1cccc(C(=O)N2CCC3(CCN(c4ccc(-c5cc(-c6cnn(C)c6)cn6ncc(C#N)c56)cn4)CC3)C2)c1` [Example 229, 4-(6-(2-(3-ethynyl)-2,8-diazaspiro[4.5]dec-8-yl)pyridin-3-yl)-6-(1-methyl-1H-pyrazol-4-yl)pyrazolo[1,5-a]pyridine-3-carbonitrile] showed an IC50 of 25.1 nM.

For `C#Cc1ccc(C(=O)N2C3CC2CN(c2ccc(-c4cc(-c5cnn(C)c5)cn5ncc(C#N)c45)cn2)C3)cc1` [Example 230, 4-(6-(6-(4-ethynyl)-3,6-diazabicyclo[3.1.1]heptan-3-yl)pyridin-3-yl)-6-(1-methyl-1H-pyrazol-4-yl)pyrazolo[1,5-a]pyridine-3-carbonitrile], the concentration for half-maximal inhibition (IC50) came out at 1.05 nM.

In the case of `C#Cc1cccc(C(=O)N2C3CC2CN(c2ccc(-c4cc(-c5cnn(C)c5)cn5ncc(C#N)c45)cn2)C3)c1` [Example 231, 4-(6-(6-(3-ethynyl)-3,6-diazabicyclo[3.1.1]heptan-3-yl)pyridin-3-yl)-6-(1-methyl-1H-pyrazol-4-yl)pyrazolo[1,5-a]pyridine-3-carbonitrile], the IC50 was 3.75 nM.
